Measured values reported in a melting point compilation (Tetko et al.).

Row | melting point [°C] | SMILES
1 | 104 to 106 | CN(C)S(=O)(=O)c1ccc(Cl)c([N+](=O)[O-])c1
2 | 230 to 232 | Cc1c(C(=O)O)sc2cccc(F)c12
3 | 149 to 151 | CC1=NOC(=O)C1CC(=O)O (centres undefined)
4 | 82 to 84 | CC(=O)c1nnn(-c2cccc(Cl)c2)c1C
5 | 161 to 163 | CC(C)(C)n1cnnc1SCC(=O)O
6 | 119 to 121 | CCOc1cc(Cl)ccc1C(=O)O
7 | 73 to 75 | O=Cc1ccc(-c2cccs2)cc1F
8 | 293 to 295 | Sc1ncnc2ccccc12
9 | 187 to 189 | NC(=O)c1c[nH]nc1-c1ccccc1
10 | 169 to 171 | Nc1ccc(O)c(S(N)(=O)=O)c1
11 | 67 to 69 | O=[N+]([O-])c1ccc(Cl)cc1S(=O)(=O)Cl
12 | 114 to 116 | CCOC(=O)c1sc2nc(CN(C)C)nc(Cl)c2c1C
13 | 231 to 233 | Sc1nnc(-c2sc3ccccc3c2Cl)o1
14 | 63 to 65 | O=C1C=C(c2ccccc2)CCC1
15 | 173 to 175 | O=C(O)c1ccc2c(c1)CCC2
16 | 62 to 64 | O=C(O)CCc1nnc(C2CCCC2)o1
17 | 172 to 174 | CC(C)C(Br)C(=O)N1CCC(C(N)=O)CC1 (centres undefined)
18 | 239 to 241 | O=C(O)Cn1cc(Br)ccc1=O
19 | 92 to 96 | CC(C)N1C(=O)NC(=O)C1=O
20 | 148 to 150 | CS(=O)(=O)c1ccc(F)cc1[N+](=O)[O-]
21 | 115 to 117 | Nc1cccc(C(=O)N2CCCC(CO)C2)c1 (centres undefined)
22 | 197 to 199 | COc1cccc(-n2c(S)nc(O)cc2=O)c1
23 | 210 to 212 | Cc1nn2c(=O)cc(CCl)nc2s1
24 | 96 to 98 | O=C(O)C1C2C3CCC(C3)C12 (centres undefined)

Row | melting point [°C] | SMILES
25 | 189 to 191 | NCc1ccc(N2CCNC(=O)C2)cc1
26 | 148 to 150 | COc1cccc(CC(NC(C)=O)C(=O)O)c1 (centres undefined)
27 | 36 to 38 | CC1(C)CCCC(C)(C)N1O
28 | 138 to 140 | Cn1cc(C2CC2C(=O)O)cn1 (centres undefined)
29 | 105 to 107 | O=C(O)C(=O)NCC(F)F
30 | 137 to 139 | Nc1nonc1-c1cccc(Br)c1
31 | 125 to 127 | Nc1ccc(Cl)c(CN2CCCCC2)c1
32 | 99 to 101 | O=C(Nc1ccccc1[N+](=O)[O-])N1CCCC1
33 | 105 to 107 | Cc1ccc(S(=O)(=O)C2(C(=O)O)CCC2)cc1
34 | 101 to 103 | OCc1ncc(-c2cccc(Cl)c2)o1
35 | 293 to 295 | O=C(O)c1ccc(Br)cc1-n1cncn1
36 | 73 to 75 | O=S(=O)(Cl)Cc1c(F)cccc1F
37 | 209 to 211 | O=C(O)c1cccc(S(=O)(=O)NC2CCCC2)c1
38 | 124 to 126 | Nc1cc(-c2cc3ccccc3o2)n[nH]1
39 | 153 to 155 | CN(Cc1ccccc1)C(=O)c1ccccc1C(=O)O
40 | 222 to 224 | CCCc1nc2ccccc2c(C(=O)O)c1CC
41 | 34 to 38 | c1ccc2c(c1)NCCS2
42 | 195 to 197 | CC1CCN(c2cc(C(=O)O)ccn2)C1 (centres undefined)
43 | 281 to 283 | Cc1nn(C)c(C)c1-c1cc(C(=O)O)[nH]n1
44 | 139 to 141 | O=C1CCCC(=O)N1c1ncc(Br)s1
45 | 90 to 92 | COCCOc1cccc(CNC(=O)CCl)c1
46 | 149 to 151 | Cc1cccc2[nH]cc(CC(=O)O)c12
47 | 111 to 113 | O=C(O)c1noc(-c2ccccc2)n1
48 | 136 to 138 | Cn1cnc(S(=O)(=O)NC2CCCC2)c1Cl

Row | melting point [°C] | SMILES
49 | 166 to 168 | CCOc1ccccc1C(=O)NCC(=O)O
50 | 67 to 69 | CC(C)NC(=O)CCCl
51 | 47 to 49 | Clc1ccc(NCc2ccccc2)cc1
52 | 43 to 45 | CC(C)NC(=O)CN1CCCNCC1
53 | 160 to 162 | CC(C)(C)OC(=O)N1CCCC(C(=O)O)C1 (centres undefined)
54 | 144 to 146 | Cc1ccc(NC(=O)c2ccccc2)cc1N
55 | 246 to 248 | N#Cc1cccc(/C=C/C(=O)O)c1
56 | 128 to 130 | Cc1cc(NC(=O)OCC(F)(F)F)n(CCC#N)n1
57 | 209 to 211 | O=C(O)c1cc(-c2ccco2)nc2ccccc12
58 | 159 to 161 | O=Cc1c[nH]c(-c2ccccc2)n1
59 | 166 to 168 | O=C(O)Cn1ccc2ccc(Cl)cc21
60 | 104 to 106 | O=C(O)C(Oc1ccc(Br)cc1F)c1ccccc1 (centres undefined)
61 | 102 to 104 | NC(=S)C1CCOC1 (centres undefined)
62 | 204 to 206 | NC(=O)CCc1nnc(S)n1Cc1ccco1
63 | 46 to 48 | Fc1ccc2c(c1)NCCC2
64 | 114 to 116 | Nc1ccc(-n2ccnc2)nc1
65 | 119 to 121 | Cc1ccccc1-c1cnc(N)s1
66 | 117 to 119 | CCn1ncc2ccc(N)cc21
67 | 60 to 62 | O=[N+]([O-])c1ccccc1CSc1ncccn1
68 | 79 to 81 | CC(=O)c1ccc(Oc2ccc(Br)cc2)cc1
69 | 73 to 75 | C1CCC(C2CCNCC2)CC1
70 | 109 to 111 | O=C(O)CCC(=O)N1CCOc2ccccc21
71 | 112 to 114 | Nc1cccc(NS(=O)(=O)c2ccc(Cl)cc2)c1
72 | 43 to 45 | CC(O)c1ccc(I)cc1 (centres undefined)

Row | melting point [°C] | SMILES
73 | 82 to 84 | C#Cc1nc2ccccc2n1C
74 | 137 to 139 | CC(C)c1cc(C(=O)O)nn1-c1ccccc1
75 | 185 to 187 | O=C(O)C(=Cc1ccc(F)cc1)c1cccs1
76 | 123 to 125 | COc1cc(C#N)ccc1Oc1ccc(N)cc1
77 | 29 to 31 | O=[N+]([O-])c1cccc(C(F)F)c1Br
78 | 146 to 148 | CCc1ccsc1C(N)=O
79 | 109 to 111 | N#CC1(CS(N)(=O)=O)CC1
80 | 247 to 249 | CN1C(=O)c2ccc(N)cc2C1=O
81 | 320 to 322 | O=C(O)CSc1nc2cc(-c3ccccc3)sc2c(=O)n1Cc1ccccc1
82 | 226 to 228 | NC(=O)CNS(=O)(=O)c1ccc(Br)c(C(=O)O)c1
83 | 199 to 200 | O=C(O)C(=Cc1ccc(Br)cc1)c1cccs1
84 | 106 to 108 | NC(=O)N1CCOCC1
85 | 72 to 74 | O=Cc1ccc(OCc2ccc(Cl)cc2)cc1
86 | 59 to 61 | CCC1(CO)CCNCC1
87 | 120 to 122 | O=C(O)CCCSc1nc2ccccc2[nH]1
88 | 146 to 148 | Nc1nc2ccccc2n1CCCc1ccccc1
89 | 59 to 61 | Cc1nn(-c2ccccc2F)c(C)c1N
90 | 125 to 127 | CCN1CCN(C(=O)c2ccc(N)cc2)CC1
91 | 185 to 187 | O=C(O)c1cc(S(=O)(=O)Cl)c(Br)cc1Br
92 | 264 to 266 | O=C(O)c1ccc(Cn2nnc3ccccc32)cc1
93 | 177 to 179 | CCc1ccc(-c2nn(-c3ccccc3C)cc2C(=O)O)cc1
94 | 173 to 175 | Sc1ncn(-c2ccccc2)n1
95 | 75 to 77 | O=C(c1ccc(F)cc1Cl)N1CCNCC1
96 | 111 to 113 | CN(C)C=C1C(=O)CCCC1=O

Row | melting point [°C] | SMILES
97 | 132 to 134 | NC(=NO)c1cc(Br)cs1
98 | 289 to 291 | O=c1cnc2cc(F)c(F)cc2[nH]1
99 | 56 to 58 | COC(=O)C(Cl)c1cc(Cl)cc(Cl)c1 (centres undefined)
100 | 127 to 129 | CCOC(=O)c1cc2c(nc1N)CCCC2
101 | 54 to 56 | COc1ccc(C(C)=O)cc1CN1CCCCC1
102 | 169 to 171 | CC(Cn1cncn1)C(N)=S (centres undefined)
103 | 215 to 217 | Cc1cc(=O)c(C(=O)O)nn1-c1ccccc1Cl
104 | 104 to 106 | CN(C)C(=O)c1cc(N)ccc1F
105 | 267 to 269 | O=C(O)c1ccc2c(c1)C(=O)NC2=O
106 | 257 to 259 | NC(=O)c1cccnc1Sc1ccc(C(=O)O)cc1
107 | 173 to 175 | C#CCNC(=O)Nc1cccc([N+](=O)[O-])c1
108 | 179 to 181 | O=c1c2cnn(-c3ccccc3)c2nnn1CCl
109 | 144 to 146 | Cc1ccc(C2(C)NC(=O)NC2=O)c(C)c1 (centres undefined)
110 | 279 to 281 | CNc1cn[nH]c(=O)c1
111 | 137 to 139 | O=C(O)c1csc(Br)c1
112 | 235 to 237 | O=C1NC(=O)C(Cc2c[nH]c3ccccc23)N1 (centres undefined)
113 | 223 to 225 | Cn1ccnc1SCC(=O)Nc1cc(C(=O)O)ccc1Cl
114 | 141 to 143 | COc1ccc(-c2noc(CCC(=O)O)n2)cc1
115 | 91 to 93 | CC(=O)c1cccc(NS(C)(=O)=O)c1
116 | 67 to 69 | CC(C)C(Oc1ccccc1C#N)C(=O)O (centres undefined)
117 | 185 to 187 | CC12CCC(CC1=NNC(=O)CCl)C2(C)C (centres undefined)
118 | 129 to 131 | CCn1nc(C)c(C(=O)O)c1Cl
119 | 144 to 146 | c1ccc(Nc2nnns2)cc1
120 | 192 to 194 | CC(C)(C)c1noc(N)n1

Row | melting point [°C] | SMILES
121 | 173 to 175 | Nc1ccc(C=O)cc1[N+](=O)[O-]
122 | 239 to 241 | O=C(Nc1ccc(-n2cnc3ccccc32)nc1)OCC(F)(F)F
123 | 58 to 60 | CNCC(=O)Nc1ccc(Cl)cc1
124 | 140 to 142 | COc1ccc2c(ccn2CC(=O)O)c1
125 | 260 to 262 | O=C(O)c1cccc(N2C(=O)CSC2=S)c1
126 | 265 to 267 | Cc1c(C(=O)O)sc2nc(C(F)(F)F)ccc12
127 | 124 to 126 | CCOc1ccc(S(=O)(=O)N(C)C)cc1N
128 | 113 to 115 | O=C(Cc1nc2ccccc2s1)c1ccccc1
129 | 154 to 156 | CCC1(C(=O)O)CCN(C(=O)c2ccccc2)CC1
130 | 184 to 186 | COC(=O)c1sc(N)nc1C1CC1
131 | 136 to 138 | COc1cc(N)ncc1Br
132 | 167 to 169 | Cc1nn(-c2ncc(C(F)(F)F)cc2Cl)c(C(F)(F)F)c1C(=O)O
133 | 176 to 178 | CCOC(=O)c1c(NC(=O)CCl)sc(C(C)=O)c1C
134 | 178 to 182 | O=C(Nc1ccccc1C(=O)O)c1ccccc1
135 | 129 to 131 | CCCc1c(C(=O)O)nnn1-c1cccc(Cl)c1
136 | 194 to 196 | CC(C)(C)c1cc(N)n(-c2ncccn2)n1
137 | 158 to 160 | Cc1ccc(Nc2nc(N)nc(CCl)n2)cc1
138 | 201 to 203 | Cc1c(C(=O)O)cc([N+](=O)[O-])c(C)c1[N+](=O)[O-]
139 | 101 to 103 | C=CCn1c(S)nnc1C1CCS(=O)(=O)C1 (centres undefined)

Row | SMILES | melting point [°C]
140 | O=C1CC2CCCC(C1)N2Cc1ccccc1 | 66 to 68
141 | COC(=O)c1oc(CCl)cc1C | 53 to 55
142 | NC(=O)N1CCc2cc(S(=O)(=O)F)ccc21 | 218 to 220
143 | CC(Cl)C(=O)NC(N)=O (centres undefined) | 159 to 161
144 | CC(=O)NNC(=O)CCl | 157 to 159
